# Source: article PMC8143347, “Metabolism and Interspecies Variation of IMMH-010, a Programmed Cell Death Ligand 1 Inhibitor Prodrug” (Pharmaceutics, 2021)
# Entries after “also recorded” stand apart in the source; their conditions may differ.
# How the values were obtained:
# Assay type in all cases: in vitro ADME
# CES2 = molecular target: T1, CES2 (Homo sapiens, UniProt O00748); assay: Chemical inhibition of IMMH-010 hydrolysis in HLM, selective CES2 inhibitor; parameters: tissue BD Gentest; host or cells: pooled mixed-gender human liver microsomes; settings: 50 μM inhibitor, IMMH-010 10 µM, HLM 0.2 mg/mL, 15 min
# T1 sequence (O00748 27-559): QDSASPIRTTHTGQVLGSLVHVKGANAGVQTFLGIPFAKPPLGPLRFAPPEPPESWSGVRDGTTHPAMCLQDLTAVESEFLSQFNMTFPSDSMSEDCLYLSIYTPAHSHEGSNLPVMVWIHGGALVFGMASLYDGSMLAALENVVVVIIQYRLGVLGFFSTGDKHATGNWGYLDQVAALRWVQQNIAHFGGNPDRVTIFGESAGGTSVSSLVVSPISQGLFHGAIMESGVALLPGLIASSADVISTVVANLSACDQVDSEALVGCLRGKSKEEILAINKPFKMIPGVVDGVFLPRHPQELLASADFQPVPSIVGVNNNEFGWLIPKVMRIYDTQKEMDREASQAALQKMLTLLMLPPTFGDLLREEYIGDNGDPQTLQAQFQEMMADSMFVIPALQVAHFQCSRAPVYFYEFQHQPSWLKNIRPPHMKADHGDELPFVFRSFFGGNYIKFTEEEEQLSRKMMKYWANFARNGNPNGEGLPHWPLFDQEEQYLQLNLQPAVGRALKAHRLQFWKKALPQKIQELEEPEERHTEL
# Description: (§1) Selective chemical inhibitors and recombinant human enzymes were used to investigate the esterase responsible for IMMH-010 metabolism in HLM. The selective CES1 and CES2 inhibitors were digitonin (100 μM) and telmisartan (50 μM), respectively. IMMH-010 (10 µM) was incubated with HLM (0.2 mg/mL) at 37 °C for 0 and 15 min in the presence of chemical inhibitors. Control samples were incubated without inhibitors.
# [1] = IMMH-010 stability in monkey plasma; settings: 10 μM, after 1 h of incubation
# Description: (§2) IMMH-010 hydrolysis was investigated in human, monkey, rat, and mouse plasma. […] IMMH-010 (10 μM) was incubated in rat or mouse plasma (0.2 mL) at 4 °C for 60 min. The experiments were performed in triplicate. The reactions were initiated by the addition of IMMH-010 (10 μM). After incubation, the reactions were stopped by adding 2 volumes of ice-cold acetonitrile. After vortexing and centrifuging, the concentrations of IMMH-010 and YPD-29B in the supernatant were determined by liquid chromatography with tandem mass spectrometry (LC-MS/MS). The compound olmesartan (10 μM), a substrate of paraoxonase 1, was set as the positive control.
# [2] = IMMH-010 stability in rat plasma; settings: 10 μM, after 1 h of incubation
# Description: (§3) IMMH-010 hydrolysis was investigated in human, monkey, rat, and mouse plasma. IMMH-010 (1 μM) was incubated in human, monkey, or […] plasma (0.2 mL) at 37 °C for 120 min. IMMH-010 (10 μM) was incubated in rat or mouse plasma (0.2 mL) at 4 °C for 60 min. The experiments were performed in triplicate. The reactions were initiated by the addition of IMMH-010 (10 μM). After incubation, the reactions were stopped by adding 2 volumes of ice-cold acetonitrile. After vortexing and centrifuging, the concentrations of IMMH-010 and YPD-29B in the supernatant were determined by liquid chromatography with tandem mass spectrometry (LC-MS/MS). The compound olmesartan (10 μM), a substrate of paraoxonase 1, was set as the positive control.
# [3] = IMMH-010 stability in mouse plasma; settings: 10 μM, after 1 h of incubation
# Description: as §3
# [4] = IMMH-010 stability in human plasma; settings: 10 μM, after 1 h of incubation
# Description: as §2
# CES1 = molecular target: T2, CES1 (Homo sapiens, UniProt P23141); assay: Chemical inhibition of IMMH-010 hydrolysis in HLM, selective CES1 inhibitor; parameters: tissue BD Gentest; host or cells: pooled mixed-gender human liver microsomes; settings: 100 μM inhibitor, IMMH-010 10 µM, HLM 0.2 mg/mL, 15 min, vs no inhibitor group
# T2 sequence (P23141 18-567): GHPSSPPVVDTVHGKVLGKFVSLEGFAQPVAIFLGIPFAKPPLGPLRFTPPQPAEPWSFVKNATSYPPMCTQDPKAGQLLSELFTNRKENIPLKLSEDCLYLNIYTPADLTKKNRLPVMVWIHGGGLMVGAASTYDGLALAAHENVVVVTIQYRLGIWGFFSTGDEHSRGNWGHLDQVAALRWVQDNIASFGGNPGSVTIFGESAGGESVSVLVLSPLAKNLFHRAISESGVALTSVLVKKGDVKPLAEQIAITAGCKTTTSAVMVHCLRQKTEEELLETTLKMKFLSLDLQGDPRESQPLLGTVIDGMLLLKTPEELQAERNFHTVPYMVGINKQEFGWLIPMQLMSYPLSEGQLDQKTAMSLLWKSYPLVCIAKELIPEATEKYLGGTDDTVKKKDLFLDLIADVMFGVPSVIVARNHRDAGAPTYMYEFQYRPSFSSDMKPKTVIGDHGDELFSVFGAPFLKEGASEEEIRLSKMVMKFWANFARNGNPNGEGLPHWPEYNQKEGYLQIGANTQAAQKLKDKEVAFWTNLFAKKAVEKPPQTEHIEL
# Description: as §1
structure (smiles),measurement,setting,value
CCCc1nc2c(C)cc(-c3nc4ccccc4n3C)cc2n1Cc1ccc(-c2ccccc2C(=O)O)cc1 [telmisartan],inhibition of the formation of YPD-29B,CES2,did not inhibit; also recorded: no inhibition
"CCCc1nc(C(C)(C)O)c(C(=O)O)n1Cc1ccc(-c2ccccc2-c2nnn[nH]2)cc1 [olmesartan, reference compound]",decrease of control compound in plasma,[1],more than 80%
same,decrease of control compound in plasma,[2],more than 80%
same,decrease of control compound in plasma,[3],more than 80%
same,decrease of control compound in plasma,[4],more than 80%
C[C@@H]1CC[C@@]2(OC1)O[C@H]1[C@@H](O)[C@H]3[C@@H]4CC[C@H]5C[C@@H](O[C@@H]6O[C@H](CO)[C@H](O[C@@H]7O[C@H](CO)[C@@H](O)[C@H](O[C@@H]8OC[C@@H](O)[C@H](O)[C@H]8O)[C@H]7O[C@@H]7O[C@H](CO)[C@H](O)[C@H](O[C@@H]8O[C@H](CO)[C@@H](O)[C@H](O)[C@H]8O)[C@H]7O)[C@H](O)[C@H]6O)[C@H](O)C[C@]5(C)[C@H]4CC[C@]3(C)[C@H]1[C@@H]2C [digitonin],inhibition of the formation of YPD-29B,CES1,35.8%
